The values below are quoted from earlier work in US20220323396A1, “COMPOSITIONS AND METHODS FOR TREATING VIRAL INFECTION USING ANTIVIRAL COCKTAILS” (priority 2020, published 2022).

Each structure is given as a SMILES string.

Series [1] deals with human tryptase (Homo sapiens, UniProt Q15661).
Series [2] concerns the target thrombin (Homo sapiens, UniProt P00734). The following applies: values ranging; potent, specific and reversible inhibition.

Chain of human tryptase (Q15661 31-275): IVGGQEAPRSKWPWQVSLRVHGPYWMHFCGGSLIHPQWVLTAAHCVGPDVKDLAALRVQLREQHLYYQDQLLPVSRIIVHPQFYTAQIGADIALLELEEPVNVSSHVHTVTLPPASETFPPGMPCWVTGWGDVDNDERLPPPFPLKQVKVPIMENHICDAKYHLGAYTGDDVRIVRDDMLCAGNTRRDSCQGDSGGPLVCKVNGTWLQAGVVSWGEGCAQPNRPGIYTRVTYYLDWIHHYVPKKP

Broadly, the IC50 is the concentration that inhibits the measured activity by half. `N=C(N)c1ccc2cc(OC(=O)c3ccc(N=C(N)N)cc3)ccc2c1` [Nafamostat]: the IC50 in series [1] was 0.016 nM; in series [2] it was 330 to 1900 nM.
